Here are results for one compound from patent publication US9399028B2, “Treatment of drug resistant cancer” (ROCKEFELLER UNIVERSITY (THE), priority 2012, dated 2016).

Molecules are shown by their SMILES. Structures can show the parent of a compound that is named as a salt.

One test addresses T1, LXRβ (Homo sapiens, UniProt P55055).
T1 sequence (P55055 184-460 limits assumed): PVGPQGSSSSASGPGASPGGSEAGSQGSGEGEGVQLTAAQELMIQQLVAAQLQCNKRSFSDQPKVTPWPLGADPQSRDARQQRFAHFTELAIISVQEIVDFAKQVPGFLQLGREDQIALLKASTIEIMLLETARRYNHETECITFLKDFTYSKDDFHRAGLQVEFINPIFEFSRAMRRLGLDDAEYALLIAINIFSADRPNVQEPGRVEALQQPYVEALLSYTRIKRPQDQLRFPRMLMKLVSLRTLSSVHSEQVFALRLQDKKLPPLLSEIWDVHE
T1 sequence (Q15788 676-700 partner limits assumed): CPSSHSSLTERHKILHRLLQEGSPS
To be noted: LiSA, unit inferred; cited from earlier work.

Test [1] has as its system Tyr::CreER; B-RafV600E/+; Ptenlox/+ and Ptenlox/lox mice. In words: Genetically-initiated model of melanoma progression. The format is in vivo, mouse. The protocol:
The Tyr::CreER; B-Raf^V600E/+, Pten^lox/+/Tyr::CreER; B-Raf^V600E/+, Pten^lox/lox conditional model of melanoma progression was previously established and characterized by Dankort et al. (2009). Briefly, melanoma in these mice was induced at 6 weeks of age by intraperitoneally injecting 4-HT (H6278, 70% isomer, Sigma-Aldrich, St Louis, Mo.) at 25 mg/kg administered in peanut oil on three consecutive days. The 4-HT stock solution was prepared by dissolving it in 100% EtOH at 50 mg/mL by heating at 45° C. for 5 min and mixing. Once dissolved, the stock 4-HT solution was then diluted by 10-fold in peanut oil, yielding a 5 mg/mL 4-HT working solution that was then injected into mice. After the first 4-HT injection, mice were blindedly assigned to receive either a control diet or a diet supplemented with GW3965 (100 mg/kg). Mice were examined three times a week for the presence and progression of melanoma lesions. At day 35, dorsal skin samples were harvested from control-treated and GW3965-treated mice, fixed in 4% PFA and photographed at 10×. The percentage of pigmented melanoma lesion area out of the total skin area was quantified using ImageJ. For survival analyses, mice were monitored daily for melanoma progression and euthanized according to a standard body condition score, taking into account initial signs of moribund state and discomfort associated with the progression of melanoma burden. Post-mortem, the lungs, brains, and salivary glands were harvested and examined for the presence of macroscopic melanoma lesions.

Turning to `O=C(O)Cc1cccc(OCCCN(Cc2cccc(C(F)(F)F)c2Cl)CC(c2ccccc2)c2ccccc2)c1` [GW3965 2, 3-[3-[N-(2-Chloro-3-trifluoromethylbenzyl)-(2,2-diphenylethyl)amino]propyloxy]phenylacetic acid hydrochloride], the EC50 on LXRβ was 30 nM. The overall survival times result in test [1] (Ptenlox/+ and Ptenlox/lox mice, diet 100 mg/kg) is on record as “significantly extended”. The “number of lymphatic metastases detected post-mortem” value in test [1] (Ptenlox/lox mice, salivary gland lymph nodes, 100 mg/kg) is listed as “decrease”. For the same compound, in test [1] (diet 100 mg/kg after melanoma initiation), the tumor progression entry is reported as “attenuated”.

By EC50 is commonly meant the concentration giving half of the maximal effect.
